In PMC7436013, “Design, Synthesis, and Biological Investigation of Novel Classes of 3-Carene-Derived Potent Inhibitors of TDP1” (Molecules, 2020):
“Also recorded” adds a separate entry of the source. Blank lines part the entries; values can stand above or below the compound they belong to.

Experiments:
TDP1 [1] = target: T1, TDP1 (Homo sapiens, UniProt Q9NUW8); test: Real-time detection of TDP1 activity with fluorescent oligonucleotide biosensor; format: biochemical; details: for IC50: real-time fluorescent oligonucleotide biosensor, 1.5 nM TDP1, 50 nM substrate, read-out: IC50, TDP1 inhibition
T1 construct: made in house; host or cells: Escherichia coli
Experimental: The compounds synthesized starting from (+)-3-carene 8 were tested for their TDP1 inhibitory properties by measuring their IC50 values using a real-time fluorescent oligonucleotide biosensor [38].
A fluorophore quencher-coupled oligonucleotide biosensor was used for TDP1 enzyme activity real-time fluorescence detection. […] Recombinant protein TDP1 was expressed in Escherichia coli (pET 16B plasmid containing TDP1 cDNA was provided by Dr. K.W. Caldecott, University of Sussex, United Kingdom) and isolated as described by Lebedeva et al.. The reaction mixture contained TDP1 reaction buffer (50 mM Tris-HCl, 50 mM NaCl, 7 mM β-mercaptoethanol), 50 nM oligonucleotide substrate, varied concentrations of the tested compounds, and 1.5 nM purified TDP1 in a final volume of 200 μL.
The TDP1 reaction mixture was incubated at rt in a POLARstar OPTIMA fluorimeter (BMG LABTECH, GmbH). Fluorescence intensity was measured every 1 min (Ex485/Em520 nm). The efficiency of TDP1 inhibition was evaluated by comparing the rate of increase in the fluorescence of the biosensor in the presence of the compound to that of DMSO (1.5%) control wells. IC50 values were determined using an 11-point concentration–response curve. The data were imported into MARS Data Analysis 2.0 program (BMG LABTECH) and the slope during the linear phase was calculated. The IC50 measurements were carried out in at least three independent experiments.

[2] = test system: HeLa (cervical carcinoma); test: Colorimetric cytotoxicity test, HeLa; format: cell-based, human
Experimental: (§1) The cytotoxicity of the compounds was examined against human cell lines HEK293FT (human embryonic kidney), WT and TDP1-deficient (TDP1-/-), HCT116 (human colon cancer), IMR-32 (human neuroblastoma cell line), HeLa (cervical cancer), and Krebs-2 carcinoma ascites using MTT and EZ4U colorimetric tests or an xCELLigence DP Real-Time Cell Analyzer (ACEA Biosciences, San Diego, CA, USA) for HEK293FT in cells exposed to the compounds. The cells were grown in DMEM/F12 or IMDM (for IMR-32 and Krebs-2) medium (Gibco), with 1x GlutaMAX (Gibco), 50 IU/mL penicillin, 50 μg/mL streptomycin (MP Biomedicals, Irvine, CA, USA) and in the presence of 10% fetal bovine serum (Biolot). The cells (~20,000 cells per well) were incubated for 24 h at 37 °C in 5% CO2, and then treated with the tested compounds (the volume of the added reagents was 1/100 of the total volume of the culture medium, the amount of DMSO was 1% of the final volume as indicated). Control cells were grown in the presence of 1% DMSO where indicated. After 72 h of cell incubation, the relative amount of living cells was determined using a colorimetric test of the amount of formazan converted from 3-(4,5-dimethylthiazol-2-yl)-2,5-diphenyl-2H-tetrazolium bromide (MTT test) or EZ4U Cell Proliferation and Cytotoxicity Assay (Biomedica, Austria), as per the manufacturer’s protocols. The real-time detection of the living cells was done by an xCELLigence DP Real-Time Cell Analyzer (ACEA Biosciences). The measurements were carried out in three parallel experiments.

HEK293FT WT cells [3] = test: Colorimetric cytotoxicity test (MTT/EZ4U), HEK293FT WT; format: cell-based, human; details: for IC50: Homo sapiens, HEK293FT, 72 h, read-out: Tpc IC50, colorimetric test
Experimental: (§2) We analyzed, using a colorimetric test, the relative amount of viable cells after treating HEK293FT WT and TDP1-deficient (TDP1−/−) cells with increasing concentrations of Tpc for 72 h. […] Next, we studied WT and mutant cells’ live activity after Tpc treatment on the xCELLigence System (ACEA Biosciences, USA) by the impedance-based assay. HEK293FT TDP1−/− cells were more sensitive to Tpc (Figure 2B). After Tpc administration to the cells, an […] of the slope was seen, characterizing the velocity of the cell growth with Tpc as compared to the control both for WT (red columns) and mutant cells (green columns) (Figure S1, Supplementary Materials). […] The sharper decrease of the slope for the mutant cells than for the WT (compare the histogram for the 0 and 0.05 μM Tpc concentration, ~1.5 times for WT cells (red) and ~6 times for TDP1−/−cells (green)) also characterizes the higher sensitivity of the mutant to the TOP1 inhibitor. […] There was a three-fold difference for these IC50 values, which is nearly the same as for the colorimetric assay.
as §1

HEK293FT TDP1−/− cells [4] = test: Colorimetric cytotoxicity test (MTT/EZ4U), HEK293FT TDP1-/-; format: cell-based, human; details: for IC50: Homo sapiens, HEK293FT, 72 h, read-out: Tpc IC50, colorimetric test
Experimental: as §2, §1

[5] = test system: IMR-32 (human neuroblastoma cell line); test: Colorimetric cytotoxicity test, IMR-32; format: cell-based
Experimental: as §1

Krebs-2 carcinoma cells = test: Colorimetric cytotoxicity test, Krebs-2; format: cell-based
Experimental: as §1, with “The real-time detection of the living cells was done by an xCELLigence DP Real-Time Cell Analyzer (ACEA Biosciences). The measurements were carried out in three parallel experiments.” left out

[6] = test system: HCT116 (human colon cancer); test: Colorimetric cytotoxicity test, HCT116; format: cell-based
Experimental: as §1

TDP1 [7] = test system: TDP1; design: method as in PMID 31619021, PMID 30396105, PMID 30142660, PMID 29562592, PMID 27658793; details: Figure 1; ref [10]-[13],[16]-[18],[20],[22]; read-out: IC50 of known TDP1 inhibitors; cited from earlier work
[8] = test system: lung adenocarcinoma cells A549; design: method as in PMID 30523770, doi:10.3390/app9132767; details: ref [18],[20]; cited from earlier work
HEK293FT TDP1−/− cells [9] = test: Impedance-based real-time assay (xCELLigence), HEK293FT TDP1-/-; format: cell-based, human
Experimental: as §2, with “colorimetric assay. […]” for “colorimetric assay.”

HEK293FT WT cells [10] = test: Impedance-based real-time assay (xCELLigence), HEK293FT WT; format: cell-based, human
Experimental: as §2, with “colorimetric assay. […]” for “colorimetric assay.”

[11] = Homo sapiens, in H2O, read-out: Tpc IC50, impedance-based assay

T1 sequence (Q9NUW8 whole entry): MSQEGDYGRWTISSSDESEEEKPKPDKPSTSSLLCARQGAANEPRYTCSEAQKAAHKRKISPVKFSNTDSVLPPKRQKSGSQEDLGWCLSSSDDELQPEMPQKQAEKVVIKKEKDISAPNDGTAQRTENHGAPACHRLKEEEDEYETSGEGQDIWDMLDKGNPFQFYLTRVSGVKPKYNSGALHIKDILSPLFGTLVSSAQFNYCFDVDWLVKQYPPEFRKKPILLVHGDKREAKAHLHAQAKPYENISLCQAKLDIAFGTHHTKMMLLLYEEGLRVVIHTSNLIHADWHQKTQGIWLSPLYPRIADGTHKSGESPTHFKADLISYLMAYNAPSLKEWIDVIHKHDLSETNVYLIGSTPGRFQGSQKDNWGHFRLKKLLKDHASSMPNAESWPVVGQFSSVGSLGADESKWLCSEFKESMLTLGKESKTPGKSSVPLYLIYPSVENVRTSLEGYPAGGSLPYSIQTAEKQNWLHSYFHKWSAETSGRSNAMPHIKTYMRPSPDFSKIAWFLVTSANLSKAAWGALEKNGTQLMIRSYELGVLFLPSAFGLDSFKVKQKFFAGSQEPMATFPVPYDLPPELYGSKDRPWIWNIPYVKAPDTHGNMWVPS

SMILES: CC1=C[C@@H]2[C@@H](c3ccsc3)OC(C)(C)[C@@H]2CC1 [11k, (1S(R),3aR,7aS)-3,3,6-trimethyl-1-(thiophen-3-yl)-1,3,3a,4,5,7a-hexahydroisobenzofuran]
IC50 (TDP1 [1]): 1600 ± 560 nM

SMILES: C[C@@H]1CC[C@@H]2[C@@H](C1)O[C@@H](c1ccc(NC(=O)C34CC5CC(CC(C5)C3)C4)s1)C[C@]2(C)O [compound 3]
IC50 (TDP1 [7]): 1200 nM

SMILES: CC(C)CCCC(C)CCNC(=S)C12CC3CC(CC(C3)C1)C2 (centres unmarked) [compound 7]
synergism in combination with Tpc [8]: strong synergism | IC50 (TDP1 [7]): 3300 nM

SMILES: CC[C@@]1(O)C(=O)OCc2c1cc1n(c2=O)Cc2cc3c(CN(C)C)c(O)ccc3nc2-1 [Tpc, topotecan, reference compound]
IC50 (HEK293FT WT cells [3]; in DMSO): 200 nM | IC50 (HEK293FT WT cells [3]; in H2O): 250 nM | IC50 (HEK293FT TDP1−/− cells [4]; in DMSO): 30 nM | IC50 (HEK293FT TDP1−/− cells [4]; in H2O): 150 nM | IC50 ([5]; Homo sapiens, IMR-32, read-out: Tpc IC50 (concentration close to IC50)): ~8 nM | IC50 (HEK293FT TDP1−/− cells [9]; [11]): 20 nM | decrease of the slope (velocity of cell growth), 0 vs 0.05 μM Tpc (HEK293FT TDP1−/− cells [9]; ~70 h after Tpc treatment): ~ 6 times | IC50 (HEK293FT WT cells [10]; [11]): 60 nM | decrease of the slope (velocity of cell growth), 0 vs 0.05 μM Tpc (HEK293FT WT cells [10]; ~70 h after Tpc treatment): ~ 1.5 times | IC50 ([6]; Homo sapiens, HCT-116, read-out: Tpc IC50 (concentration close to IC50)): ~900 nM

SMILES: CC(C)CCCC(C)CCOC(=O)C12CC3CC(CC(C3)C1)C2 (centres unmarked) [compound 6]
synergism in combination with Tpc [8]: strong synergism | IC50 (TDP1 [7]): 920 nM

Now from value to compound, other results behind:

IC50 (TDP1 [1]): 650 ± 220 nM
SMILES: CC1=CC[C@@H]2C[C@H]1[C@H](c1cc(Br)cs1)OC2(C)C [12g, (1R,4R,5R)-2,2,6-trimethyl-4-(4-bromothiophen-2-yl)-3-oxabicyclo[3.3.1]non-6-ene]

activity against TDP1 (in words) (TDP1 [1]): do not exhibit activity | IC50 (TDP1 [1]): > 20000 nM
SMILES: C/C=C/C1OC(C)(C)[C@@H]2CCC(C)=C[C@H]12 (some centres unmarked) [11c]

IC50 (TDP1 [1]): 750 ± 70 nM
SMILES: CC1=C[C@@H]2[C@@H](c3ccc(Br)s3)OC(C)(C)[C@@H]2CC1 [11h, (1S,3aR,7aS)-3,3,6-trimethyl-1-(5-bromothiophen-2-yl)-1,3,3a,4,5,7a-hexahydroisobenzofuran]
intrinsic cytotoxicity [2]: low | enhancement of the Tpc cytotoxicity ([2]; data not shown): no enhancement | effect of TDP1 inhibitor in conjunction with Tpc on cell growth (HEK293FT WT cells [3]; Tpc 200 nM): cell growth suppression; also recorded: synergistic effect; also recorded: Suppressed cell growth | effect of TDP1 inhibitor in conjunction with Tpc on cell growth (HEK293FT TDP1−/− cells [4]; Tpc 30 nM): not found; also recorded: no effect | intrinsic cytotoxicity ([5]; IMR-32): low | dose-dependent action of Tpc in the presence of inhibitor ([5]; IMR-32, Figure 4C): synergistic action | dose-dependent action of inhibitor in the presence of Tpc on cell growth ([5]; IMR-32, Tpc 8 nM, Figure 4B): suppressed cell growth | intrinsic cytotoxicity (Krebs-2 carcinoma cells): low | intrinsic cytotoxicity ([6]; HCT116): low | dose-dependent action of Tpc in the presence of inhibitor ([6]; HCT116, Figure 4C): enhanced Tpc’s potency | dose-dependent action of inhibitor in the presence of Tpc on cell growth ([6]; HCT, Tpc 900 nM, Figure 4B): no effect

activity against TDP1 (in words) (TDP1 [1]): do not exhibit activity | IC50 (TDP1 [1]): > 20000 nM
SMILES: COc1cc(C2OC(C)(C)C3CC=C(C)C2C3)ccc1O (centres unmarked) [12a]

activity against TDP1 (in words) (TDP1 [1]): did not exhibit high activity | IC50 (TDP1 [1]): 28000 ± 10000 nM
SMILES: CC1=CC[C@@H]2C[C@H]1[C@H](c1ccc([N+](=O)[O-])o1)OC2(C)C [12j, (1R,4R,5R)-2,2,6-trimethyl-4-(5-nitrofuran-2-yl)-3-oxabicyclo[3.3.1]non-6-ene]
